Laboratory results as given in US9757399B2, “Butyrylcholinesterase inhibitors” (priority 2006, dated 2017).

Each molecule was assayed against T1, butyrylcholinesterase (from horse serum) (Equus caballus, UniProt P81908) (assay: Rates of inactivation of butyrylcholinesterase, Ellman assay). Details: inhibitor at 10^−4M.
T1 construct: butyrylcholinesterase (from horse serum); purchased Sigma; host or cells: horse serum (natural source)
Assay type: biochemical

T1 sequence (P81908 whole entry): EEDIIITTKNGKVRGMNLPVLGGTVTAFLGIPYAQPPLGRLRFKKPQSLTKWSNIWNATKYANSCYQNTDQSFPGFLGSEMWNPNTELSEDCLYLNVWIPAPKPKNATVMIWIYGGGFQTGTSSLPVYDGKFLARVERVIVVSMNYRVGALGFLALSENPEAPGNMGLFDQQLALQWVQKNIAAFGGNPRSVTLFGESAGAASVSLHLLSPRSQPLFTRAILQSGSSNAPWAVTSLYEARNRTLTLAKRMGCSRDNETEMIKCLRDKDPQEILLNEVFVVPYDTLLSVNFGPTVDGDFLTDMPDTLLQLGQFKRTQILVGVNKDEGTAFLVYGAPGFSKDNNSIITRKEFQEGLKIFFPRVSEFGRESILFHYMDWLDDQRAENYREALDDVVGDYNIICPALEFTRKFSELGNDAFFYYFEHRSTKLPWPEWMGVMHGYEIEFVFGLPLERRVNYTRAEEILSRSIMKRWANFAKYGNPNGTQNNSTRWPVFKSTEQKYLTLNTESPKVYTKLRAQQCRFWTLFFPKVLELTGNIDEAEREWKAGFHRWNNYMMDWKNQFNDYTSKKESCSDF

| Compound | % Inhibition of butyrylcholinesterase |
| --- | --- |
| CC(C)OP(=O)(Oc1ccccc1Cl)OC(C)C [Di-iso-propyl-, 2-Chlorophenyl di-i-propyl phosphate] | 85.3% Inhibition |
| COP(=O)(OC)Oc1ccccc1Cl [Di-methyl-, 2-Chlorophenyl dimethyl phosphate] | 48.9% Inhibition |

Each molecule was assayed against T2, butyrylcholinesterase (Equus caballus, UniProt P81908) (assay: Phosphorylation of BuChase by 14C-labeled inhibitor, autoradiography). Details: 14C-labeled compound, native gel.
T2 construct: butyrylcholinesterase (from horse serum); purchased Sigma; host or cells: horse serum (natural source)
T2 sequence (P81908 whole entry): as above
Parameters: species or system horse
Experimental: The cholinesterases were pre-incubated with ^14C-di-ethyl-2-chlorophenyl phosphate and then fractionated by native gel electrophoresis as described above. The proteins were fixed in the gel with 10% acetic acid/30% methanol. The fixative was removed and replaced with 100 mL of EN^3HANCE. The gel was incubated for 60 minutes at room temperature with gentle agitation and then placed in 5% PEG and incubated for 30 minutes at room temperature with gentle agitation. The gel was then dried down on a piece of 3 MM filter paper, exposed to X-ray film at −80° C. for 2 weeks, and then developed.

| Compound | covalent modification of BuChase (FIG. 2B) |
| --- | --- |
| CCOP(=O)(OCC)Oc1ccccc1Cl [Di-ethyl-, 2-Chlorophenyl diethyl phosphate] | covalently modified |

These molecules were tested against T2, butyrylcholinesterase (assay: Native gel electrophoresis activity stain, BuChase). Details: pre-incubation with inhibitor.
Assay type: biochemical, horse
Experimental: (§1) Enzyme activity was also measured by native gel electrophoresis. For cholinesterase activity, proteins (10 μg of both acetylcholinesterase and butyrylcholinesterase) were fractionated on Novex precast 10% Tris glycine gels (Invitrogen). Enzyme activity was detected by first incubating the gels in a solution of 5 mM substrate then staining with a solution of copper sulfate/potassium ferricyanide.
(§2) Using native gel electrophoresis, both AcChase and BuChase activity was detected. Pre-incubation of AcChase with di-ethyl 2-chlorophenyl phosphate had no effect on AcChase activity (FIG. 1).

| Compound | effect on BuChase activity, native gel (FIG. 2A) |
| --- | --- |
| CCOP(=O)(OCC)Oc1ccccc1Cl [Di-ethyl-, 2-Chlorophenyl diethyl phosphate] | nearly completely inhibited |

These molecules were tested against T2, butyrylcholinesterase (assay: biochemical). Details: not given.
Assay type: biochemical, horse
Experimental: (§3) Cholinesterase activity measurements were performed essentially according to the method of Ellman (Biochemical Pharmacology 7:88-90, 1961). The composition of the assay mixture was 0.1 M sodium phosphate, pH 7.5, 0.033 M DTNB, 0.001 M MgCl2, and 100 μg/mL of BSA containing appropriate amounts of substrate and inhibitor. Each assay was initiated by the addition of substrate and the activity quantified by measuring the formation of the thionitrobenzoate anion at 412 nm at 37° C. Methanol used to solubilize the dialkyl phenyl phosphates [1% (v/v) final concentration] had no inhibitory effect on either enzyme.
. The results were obtained by pre-incubating the enzyme with the compound (final concentration 10^−7M) for various periods of time and measuring the remaining enzyme activity. The results are shown as the change in absorbance at 412 nm/minute. In order to simplify the results from all the compounds, the enzyme activities were normalized to 2-chlorophenyl-di-n-butyl phosphate which was set as 1.0. Since two different preparations of enzyme were used, the normalization procedure would adjust for any differences in the amount of enzyme. […]. In other cases, the compound's inhibitory activity is not as strong and assay conditions were modified to increase the inhibitor concentration.
Table 4: Rates of inactivation of butyrylcholinesterase by exemplary compounds: Change in Absorbance at 412 nm/Minute. (ND=No Data)

| Compound | type of inhibition |
| --- | --- |
| CCCCOP(=O)(OCCCC)Oc1ccccc1C | Reversible inhibitor: Ki = 2.1 μM |

Same assay, conditions: 10^−7M; normalized to 2-chlorophenyl-di-n-butyl phosphate set as 1.0

| Compound | Change in Absorbance at 412 nm/Minute (Normalized) |
| --- | --- |
| CCCCOP(=O)(OCCCC)Oc1ccccc1Br | 1.366 |
| CCCCOP(=O)(OCCCC)Oc1cccc(Br)c1 | 6.220 |
| CCCCOP(=O)(OCCCC)Oc1ccc(Br)cc1 | 0.737 |
| CCCCOP(=O)(OCCCC)Oc1cccc(F)c1 | 0.696 |
| CCCCOP(=O)(OCCCC)Oc1ccccc1F | 2.604 |
| CCCCCCP(=O)(OCCCC)Oc1ccccc1Cl (stereo not shown) | 14.94 |
| CCCCP(=O)(Oc1ccccc1Cl)Oc1ccccc1Cl | 0.48 |
| CCCCP(=O)(CCCC)Oc1ccccc1Cl | 1.018 |
| CCCCCCNP(=O)(OCCCC)Oc1ccccc1Cl (stereo not shown) | 1.024 |
| CCCCOP(=O)(OCCCC)Oc1ccc(Cl)cc1 [drawing 55] | 0.338 |

Same assay, conditions: compound at 10^−4 M

| Compound | % inhibition of BuChase |
| --- | --- |
| CCCCOP(=S)(OCCCC)Oc1ccccc1Cl | 14.6% |

Same assay, conditions: compound at 10^−4 M; read-out: % inhibition of BuChase

| Compound | inhibition at 100 µM |
| --- | --- |
| CCCCOP(=O)(Oc1ccc(Cl)cc1Cl)Oc1ccc(Cl)cc1Cl | 63.4% |
| O=P(Oc1ccccc1)(Oc1ccccc1)Oc1ccccc1Cl | 29.4% |
| CCCCCCNP(=O)(Oc1ccccc1Cl)Oc1ccccc1Cl | 73.9% |

Same assay, conditions: compound final concentration 10^−7M

| Compound | Change in Absorbance at 412 nm/Minute (Not Normalized) |
| --- | --- |
| CCCCOP(=O)(OCCCC)Oc1ccccc1Br | 0.918 |
| CCCCOP(=O)(OCCCC)Oc1cccc(Br)c1 | 4.18 |
| CCCCOP(=O)(OCCCC)Oc1ccc(Br)cc1 | 0.495 |
| CCCCOP(=O)(OCCCC)Oc1cccc(F)c1 | 0.468 |
| CCCCOP(=O)(OCCCC)Oc1ccccc1F | 1.75 |
| CCCCCCP(=O)(OCCCC)Oc1ccccc1Cl (stereo not shown) | 10.04 |
| CCCCP(=O)(Oc1ccccc1Cl)Oc1ccccc1Cl | 0.32 |
| CCCCP(=O)(CCCC)Oc1ccccc1Cl | 0.684 |
| CCCCCCNP(=O)(OCCCC)Oc1ccccc1Cl (stereo not shown) | 0.688 |
| CCCCOP(=O)(OCCCC)Oc1ccc(Cl)cc1 [drawing 55] | 0.227 |

Same assay, conditions: standard conditions (10^−7M)

| Compound | inhibitory under standard conditions |
| --- | --- |
| CCCCOP(=S)(OCCCC)Oc1ccccc1Cl | Not Inhibitory |
| CCCCOP(=O)(Oc1ccc(Cl)cc1Cl)Oc1ccc(Cl)cc1Cl | Not inhibitory |
| O=P(Oc1ccccc1)(Oc1ccccc1)Oc1ccccc1Cl | Not inhibitory |
| CCCCCCNP(=O)(Oc1ccccc1Cl)Oc1ccccc1Cl | Not inhibitory |

Same assay, conditions: standard conditions (10^−7M), 1 minute

| Compound | % inhibition of BuChase after 1 minute |
| --- | --- |
| CCCCOP(=O)(OCCCC)Oc1ccc(Cl)cc1Cl | 92% inhibition after 1 minute under standard conditions |

Same assay, conditions: standard conditions (10^−7M), 2 minutes

| Compound | % Inhibition of BuChase after 2 minutes |
| --- | --- |
| CCCCOP(=O)(OCCCC)Oc1cccc([N+](=O)[O-])c1 | 100% |

Same assay, conditions: standard conditions (10^−7M), immediate

| Compound | % Inhibition of BuChase, immediate |
| --- | --- |
| CCCCOP(=O)(OCCCC)Oc1ccc([N+](=O)[O-])cc1 | 100% Inhibition (Immediate under standard conditions) |
| CCCCOP(=O)(OCCCC)Oc1cccc([N+](=O)[O-])c1 | 83% |

The molecules below were run against T3, acetylcholinesterase (Electrophorus electricus, UniProt O42275) (assay: Native gel electrophoresis activity stain, AcChase). Details: pre-incubation with inhibitor.
T3 construct: Acetylcholinesterase (from electric eel); purchased Sigma; host or cells: electric eel (natural source)
T3 sequence (O42275 24-633): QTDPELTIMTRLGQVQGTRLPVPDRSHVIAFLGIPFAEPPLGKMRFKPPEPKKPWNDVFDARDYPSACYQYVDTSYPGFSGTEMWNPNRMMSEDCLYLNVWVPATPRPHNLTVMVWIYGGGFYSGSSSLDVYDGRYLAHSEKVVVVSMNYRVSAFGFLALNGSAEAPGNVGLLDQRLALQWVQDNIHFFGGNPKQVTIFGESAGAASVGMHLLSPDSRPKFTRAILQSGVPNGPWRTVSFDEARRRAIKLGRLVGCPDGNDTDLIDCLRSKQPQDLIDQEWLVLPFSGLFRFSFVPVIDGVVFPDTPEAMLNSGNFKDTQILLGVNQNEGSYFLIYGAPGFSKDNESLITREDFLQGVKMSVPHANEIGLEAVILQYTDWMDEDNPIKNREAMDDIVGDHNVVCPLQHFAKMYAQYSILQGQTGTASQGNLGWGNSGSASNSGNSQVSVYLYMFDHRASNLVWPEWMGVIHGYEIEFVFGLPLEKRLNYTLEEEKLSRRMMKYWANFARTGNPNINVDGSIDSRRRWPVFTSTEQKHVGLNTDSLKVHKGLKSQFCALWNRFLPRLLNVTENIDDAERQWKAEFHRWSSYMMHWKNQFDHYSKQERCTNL
Assay type: biochemical, electric eel
Experimental: as §1, §2

| Compound | effect on AcChase activity, native gel (FIG. 1) |
| --- | --- |
| CCOP(=O)(OCC)Oc1ccccc1Cl [Di-ethyl-, 2-Chlorophenyl diethyl phosphate] | no effect |

These molecules were tested against T1, butyrylcholinesterase (from horse serum) (assay: Rates of inactivation of butyrylcholinesterase, Ellman assay). Details: 100 nM inhibitor, 25° C.
Assay type: biochemical
Experimental: (§4) Acetylcholinesterase (from electric eel), butyrylcholinesterase (from horse serum), DTNB, butyrylthiocholine, acetylthiocholine, and BSA were purchased from Sigma. The dialkyl 2-chlorophenyl (and 4-chlorophenyl) phosphates were solubilized in reagent grade methanol.
as §3
(§5) Butyrylcholinesterase was pre-incubated at room temperature with inhibitor in the assay cocktail minus substrate for varying periods of time at 25° C. Substrate was then added and the activity measured as described above. The relative rates of enzyme inactivation were determined by plotting enzyme activity versus time of pre-incubation with inhibitor. Results were expressed as the rate constant for the rate of enzyme inactivation. In the case of AcChase, results were expressed as the % of activity remaining relative to the enzyme incubated only with solvents.
. […] In Table 2, BuChase was incubated for increasing periods of time at 25° C. with 100 nM inhibitor then assayed for activity as described above. Rate constants were calculated from a plot of enzyme activity vs. time of inhibitor exposure. […]. Slopes were calculated by linear regression analysis.

| Compound | k, rate constant of inactivation of butyrylcholinesterase ± S.E.M |
| --- | --- |
| CCOP(=O)(OCC)Oc1ccccc1Cl [Di-ethyl-, 2-Chlorophenyl diethyl phosphate] | 6.64 ± 2.1 min^−1 × 10^−2 |
| CC(C)COP(=O)(OCC(C)C)Oc1ccccc1Cl [Di-iso-butyl-, Di-i-butyl 2-Chlorophenyl phosphate] | 60.83 ± 5.8 min^−1 × 10^−2 |
| CCCCOP(=O)(OCCCC)Oc1ccc(Cl)cc1 [Di-n-butyl-(4Cl), Di-n-butyl 4-chlorophenyl phosphate] | 13.01 ± 2.0 min^−1 × 10^−2 |
| CCCCCOP(=O)(OCCCCC)Oc1ccccc1Cl [Di-n-pentyl-, 2-Chlorophenyl di-n-pentyl phosphate] | 30.44 ± 3.3 min^−1 × 10^−2 |
| CCCOP(=O)(OCCC)Oc1ccccc1Cl [Di-n-propyl-, 2-Chlorophenyl di-n-propyl phosphate] | 20.21 ± 2.2 min^−1 × 10^−2 |

Same assay, conditions: standard conditions (100 nM inhibitor)

| Compound | effect on BuChase activity under standard conditions |
| --- | --- |
| CC(C)OP(=O)(Oc1ccccc1Cl)OC(C)C [Di-iso-propyl-, 2-Chlorophenyl di-i-propyl phosphate] | no effect |
| COP(=O)(OC)Oc1ccccc1Cl [Di-methyl-, 2-Chlorophenyl dimethyl phosphate] | no effect |

The molecules below were run against T4, Acetylcholinesterase (from electric eel) (Electrophorus electricus, UniProt O42275) (assay: Acetylcholinesterase activity, Ellman assay after pre-incubation with inhibitor). Details: 100 μM compound, 60 minutes at 25° C.
T4 construct: Acetylcholinesterase (from electric eel); purchased Sigma; host or cells: electric eel (natural source)
T4 sequence (O42275 24-633): as above
Assay type: biochemical
Experimental: as §4, §3, §5
The first series of experiments determined the effect of the dialkyl 2-chlorophenyl (and 4-chlorophenyl) phosphates on both AcChase and BuChase. None of the compounds had any inhibitory effect on AcChase (See Table 1). In Table 1, AcChase was incubated with 100 μM of the indicated phenyl phosphate for 60 minutes at 25° C. and then assayed as described above. Results were expressed as the % activity relative to enzyme incubated with solvent ±SD (standard deviation).

| Compound | % Activity ± SD (acetylcholinesterase activity relative to enzyme incubated with solvent) |
| --- | --- |
| CCOP(=O)(OCC)Oc1ccccc1Cl [Di-ethyl-, 2-Chlorophenyl diethyl phosphate] | 96.77 ± 0.019% |
| CC(C)COP(=O)(OCC(C)C)Oc1ccccc1Cl [Di-iso-butyl-, Di-i-butyl 2-Chlorophenyl phosphate] | 96.18 ± 0.023% |
| CC(C)OP(=O)(Oc1ccccc1Cl)OC(C)C [Di-iso-propyl-, 2-Chlorophenyl di-i-propyl phosphate] | 97.82 ± 0.045% |
| COP(=O)(OC)Oc1ccccc1Cl [Di-methyl-, 2-Chlorophenyl dimethyl phosphate] | 101.9 ± 0.019% |
| CCCCOP(=O)(OCCCC)Oc1ccc(Cl)cc1 [Di-n-butyl-(4Cl), Di-n-butyl 4-chlorophenyl phosphate] | 97.61 ± 0.006% |
| CCCOP(=O)(OCCC)Oc1ccccc1Cl [Di-n-propyl-, 2-Chlorophenyl di-n-propyl phosphate] | 97.38 ± 0.028% |

Same assay, conditions: 100 μM compound, 60 minutes at 25° C.; read-out: % Activity ± SD (acetylcholinesterase activity relative to enzyme incubated with solvent)

| Compound | activity at 100 µM |
| --- | --- |
| CCCCCOP(=O)(OCCCCC)Oc1ccccc1Cl [Di-n-pentyl-, 2-Chlorophenyl di-n-pentyl phosphate] | 101.7 ± 0.03% |
